The target in the assay is human 11β-HSD1 (Homo sapiens, UniProt P28845). In words: biochemical. The settings on record: for inhibition at 0.1 µM / inhibition at 0.111 µM: 1.5 h; for inhibition at 0.1 µM: read-out: Biological Test Example 2 Average % inhibition at 100 nm, at 100 nm; for IC50: Biological Test Example 2 IC50 Range, microsomes from CHO cells overexpressing human 11β-HSD1, SPA; for inhibition at 0.111 µM: read-out: Biological Test Example 2 Average % inhibition at 111 nm, at 111 nm.
Chain of human 11β-HSD1 (P28845 whole entry): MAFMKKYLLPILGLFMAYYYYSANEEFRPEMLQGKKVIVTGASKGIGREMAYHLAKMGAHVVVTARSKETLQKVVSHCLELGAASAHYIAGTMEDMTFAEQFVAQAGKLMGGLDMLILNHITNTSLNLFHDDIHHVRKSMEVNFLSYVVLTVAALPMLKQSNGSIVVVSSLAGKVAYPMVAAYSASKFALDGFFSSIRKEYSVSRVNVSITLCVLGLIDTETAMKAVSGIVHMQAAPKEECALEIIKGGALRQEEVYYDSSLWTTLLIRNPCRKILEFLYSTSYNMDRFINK

Each structure is given as a SMILES string. Bounds are passed on as bounds.

Protocol: All reactions are carried out at room temperature in 96 well clear flexible PET Microbeta plates (PerkinElmer). […] The reaction is stopped by adding 50 μl of the SPA beads suspension containing 10 μM 18β-glycyrrhetinic acid, 5 mg/ml protein A coated YSi SPA beads (GE Healthcare) and 3.3 μg/ml of anti-cortisol antibody (East Coast Biologics) in Superblock buffer (Bio-Rad). The plates are then shaken for 120 minutes at room temperature, and the SPA signal corresponding to [^3H]cortisol is measured on a Microbeta plate reader.

As for `O=C(O[C@H]1C2CC3CC1C[C@](O)(C3)C2)N1CC[C@@H](Nc2nc3ccc(Cl)cc3s2)C1` [Example 97, (R)-(trans-1-hydroxy-4-adamantyl) 3-(6-chlorobenzo[d]thiazol-2-ylamino)pyrrolidine-1-carboxylate], the inhibition at 0.1 µM is 91.1% and the IC50 is less than 100 nM.
The corresponding values for `N#Cc1ccc(N[C@@H]2CCN(C(=O)O[C@H]3C[C@H]4CC[C@@H](C3)N4C(N)=O)C2)nc1` [Example 105, (3R)-8-carbamoyl-8-azabicyclo[3.2.1]octan-3-yl 3-(5-cyanopyridin-2-ylamino)pyrrolidine-1-carboxylate] are 14.8% and more than 100 nM.
The corresponding values for `N#Cc1cnc(N[C@@H]2CCN(C(=O)O[C@H]3C4CC5CC3C[C@](O)(C5)C4)C2)c(Cl)c1` [Example 87, (R)-(trans-1-hydroxy-4-adamantyl) 3-(3-chloro-5-cyanopyridin-2-ylamino)pyrrolidine-1-carboxylate] are 100% and less than 100 nM.
For `O=C(NC1CC1)c1cnc(N[C@@H]2CCN(C(=O)O[C@H]3C4CC5CC3C[C@](O)(C5)C4)C2)nc1` [Example 112, (R)-(trans-1-hydroxy-4-adamantyl) 3-(5-(cyclopropylcarbamoyl)pyrimidin-2-ylamino)pyrrolidine-1-carboxylate] the same measures were 33.3% and more than 100 nM.
As for `CC(C)(C)OC(=O)NC1(C(F)(F)F)CCN(C(=O)O[C@H]2C3CC4CC2C[C@](C(N)=O)(C4)C3)C1` (stereo partly drawn) [Example 113, (trans-1-carbamoyl-4-adamantyl) 3-(tert-butoxycarbonylamino)-3-(trifluoromethyl)pyrrolidine-1-carboxylate], the inhibition at 0.1 µM turned out to be 92% and the IC50 was less than 100 nM.
Consider `CNC(=O)c1cnc(N[C@@H]2CCN(C(=O)O[C@H]3C4CC5CC3C[C@](O)(C5)C4)C2)nc1` [Example 110, (R)-(trans-1-hydroxy-4-adamantyl) 3-(5-(methylcarbamoyl)pyrimidin-2-ylamino)pyrrolidine-1-carboxylate], for which the inhibition at 0.1 µM turned out to be 32.2% and the IC50 was more than 100 nM.
On to `N#Cc1ccc(N[C@H]2CCN(C(=O)O[C@H]3C4CC5CC3C[C@](C(N)=O)(C5)C4)C2)nc1` [Example 65, (S)-(trans-1-carbamoyl-4-adamantyl) 3-(5-cyanopyridin-2-ylamino)pyrrolidine-1-carboxylate], for which the inhibition at 0.1 µM came to 97.1% and the 50% inhibitory concentration (IC50) is less than 100 nM.
For `NC(=O)C12CC3CC(C1)C(OC(=O)N1CC[C@@H](Nc4ncccc4F)C1)C(C3)C2` (stereo partly drawn) [Example 63, (R)-(trans-1-carbamoyl-4-adamantyl) 3-(3-fluoropyridin-2-ylamino)pyrrolidine-1-carboxylate] the same measures were 98.4% and less than 100 nM.
For `O=C(NC1CC1)c1ccc2nc(N[C@@H]3CCN(C(=O)O[C@H]4C5CC6CC4C[C@](O)(C6)C5)C3)sc2c1` [Example 103, (R)-(trans-1-hydroxy-4-adamantyl) 3-(6-(cyclopropylcarbamoyl)benzo[d]thiazol-2-ylamino)pyrrolidine-1-carboxylate] the same measures were 88.8% and less than 100 nM.
Consider `CC(C)(C)OC(=O)NC1(c2ccccc2)CCN(C(=O)OC2C3CC4CC(C3)CC2C4)C1` (stereo not shown) [Example 13, (2-adamantyl) 3-(tert-butoxycarbonylamino)-3-phenylpyrrolidine-1-carboxylate], for which the inhibition at 0.1 µM was determined as 87.7% and the IC50 was less than 100 nM.
The corresponding values for `O=C(O[C@H]1C2CC3CC1C[C@](O)(C3)C2)N1CC[C@@H](Nc2ccc3cc(Cl)ccc3n2)C1` [Example 95, (R)-(trans-1-hydroxy-4-adamantyl) 3-(6-chloroquinolin-2-ylamino)pyrrolidine-1-carboxylate] are 90.6% and less than 100 nM.
The corresponding values for `N#Cc1cncc(N[C@@H]2CCN(C(=O)O[C@H]3C4CC5CC3C[C@](O)(C5)C4)C2)n1` [Example 81, (R)-(trans-1-hydroxy-4-adamantyl) 3-(6-cyanopyrazin-2-ylamino)pyrrolidine-1-carboxylate] are 54.4% and less than 100 nM.
For `N#Cc1cccnc1N[C@@H]1CCN(C(=O)O[C@H]2C3CC4CC2C[C@](C(N)=O)(C4)C3)C1` [Example 34, (R)-(trans-1-carbamoyl-4-adamantyl) 3-(3-cyanopyridin-2-ylamino)pyrrolidine-1-carboxylate] the same measures were 94.6% and less than 100 nM.
Consider `CC1(Nc2ncccc2C#N)CCN(C(=O)O[C@H]2C3CC4CC2C[C@](C(N)=O)(C4)C3)C1` (stereo partly drawn) [Example 67, (trans-1-carbamoyl-4-adamantyl) 3-(3-cyanopyridin-2-ylamino)-3-methylpyrrolidine-1-carboxylate], for which the inhibition at 0.1 µM worked out at 97% and the 50% inhibitory concentration (IC50) is less than 100 nM.
The corresponding values for `CN(c1ncccc1C(F)(F)F)C1CCN(C(=O)O[C@H]2C3CC4CC2C[C@](C(N)=O)(C4)C3)C1` (stereo partly drawn) [Example 44, (trans-1-carbamoyl-4-adamantyl) 3-(methyl(3-(trifluoromethyl)pyridin-2-yl)amino)pyrrolidine-1-carboxylate] are 97.2% and less than 100 nM.
As to `CC(C)COC(=O)N[C@@H]1CCN(C(=O)NC2C3CC4CC(C3)CC2C4)C1` (stereo partly drawn) [Example 50, (R)-isobutyl 1-((2-adamantyl)carbamoyl)pyrrolidin-3-ylcarbamate], the inhibition at 0.111 µM turned out to be 92.9% and the IC50 is less than 100 nM.
As to `CC(C)(C)OC(=O)N1CCCC12CCN(C(=O)NC1C3CC4CC(C3)CC1C4)C2` (stereo not shown) [Example 58, tert-butyl 7-(2-adamantylcarbamoyl)-1,7-diazaspiro[4.4]nonane-1-carboxylate], the inhibition at 0.111 µM is 94.3% and the concentration for half-maximal inhibition (IC50) was less than 100 nM.
Take `O=C(O[C@H]1C2CC3CC1C[C@](O)(C3)C2)N1CC[C@@H](Nc2ncnc3ccccc23)C1` [Example 85, (R)-(trans-1-hydroxy-4-adamantyl) 3-(quinazolin-4-ylamino)pyrrolidine-1-carboxylate]: the inhibition at 0.1 µM came out at 64% and the IC50 is less than 100 nM.
The corresponding values for `CC1(Nc2ccc(C#N)cn2)CCN(C(=O)O[C@H]2C3CC4CC2C[C@](C(N)=O)(C4)C3)C1` (stereo partly drawn) [Example 69, (trans-1-carbamoyl-4-adamantyl) 3-(5-cyanopyridin-2-ylamino)-3-methylpyrrolidine-1-carboxylate] are 98.7% and less than 100 nM.
In the case of `N#Cc1ccc(N2CCCC23CCN(C(=O)O[C@H]2C4CC5CC2C[C@](C(N)=O)(C5)C4)C3)nc1` (stereo partly drawn) [Example 75, (trans-1-carbamoyl-4-adamantyl) 1-(5-cyanopyridin-2-yl)-1,7-diazaspiro[4.4]nonane-7-carboxylate], the inhibition at 0.1 µM worked out at 98.8%, the inhibition at 0.111 µM was found to be 97.7% and the concentration for half-maximal inhibition (IC50) is less than 100 nM.
`NC(=O)C12CC3CC(C1)C(OC(=O)N1CC[C@@H](Nc4ccc(F)cn4)C1)C(C3)C2` (stereo partly shown) [Example 115]: the inhibition at 0.1 µM was 95.2% and the IC50 was less than 100 nM.
For the molecule `N#Cc1cccnc1N[C@H]1CCN(C(=O)O[C@H]2C3CC4CC2C[C@](C(N)=O)(C4)C3)C1` [Example 66, (S)-(trans-1-carbamoyl-4-adamantyl) 3-(3-cyanopyridin-2-ylamino)pyrrolidine-1-carboxylate], the inhibition at 0.1 µM was found to be 95.5% and the IC50 was less than 100 nM.
As for `CC(C)(C)OC(=O)N(CCO)[C@@H]1CCN(C(=O)O[C@H]2C3CC4CC2C[C@](C(N)=O)(C4)C3)C1` [Example 28, (R)-(1-carbamoyl-4-adamantyl) 3-(tert-butoxycarbonyl(2-hydroxyethyl)amino)pyrrolidine-1-carboxylate], the 50% inhibitory concentration (IC50) was less than 100 nM.
As for `CS(=O)(=O)N1C2CCC1CC(NC(=O)N1CC[C@@H](Nc3ccc(C#N)cn3)C1)C2` (stereo partly drawn) [Example 106, (3R)-3-(5-cyanopyridin-2-ylamino)-N-(8-(methylsulfonyl)-8-azabicyclo[3.2.1]octan-3-yl)pyrrolidine-1-carboxamide], the inhibition at 0.1 µM was 3.9% and the IC50 was more than 100 nM.
As to `NC(=O)C1CC2CCCC(C1)C2OC(=O)N1CC[C@@H](Nc2ccc(C(F)(F)F)cn2)C1` (stereo partly drawn) [Example 71, (3R)-3-carbamoylbicyclo[3.3.1]nonan-9-yl 3-(5-(trifluoromethyl)pyridin-2-ylamino)pyrrolidine-1-carboxylate], the inhibition at 0.1 µM worked out at 84.2%, the inhibition at 0.111 µM is 82.6% and the IC50 is less than 100 nM.
The molecule `COC(=O)c1cnc(N[C@@H]2CCN(C(=O)O[C@H]3C4CC5CC3C[C@](O)(C5)C4)C2)nc1` [Example 107, Methyl 2-((R)-1-((trans-1-hydroxy-4-adamantyloxy)carbonyl)pyrrolidin-3-ylamino)pyrimidine-5-carboxylate] returned an IC50 of less than 100 nM.
In the case of `N#Cc1cc(Cl)cnc1N[C@@H]1CCN(C(=O)O[C@H]2C3CC4CC2C[C@](O)(C4)C3)C1` [Example 86, (R)-(trans-1-hydroxy-4-adamantyl) 3-(5-chloro-3-cyanopyridin-2-ylamino)pyrrolidine-1-carboxylate], the inhibition at 0.1 µM came to 101% and the IC50 is less than 100 nM.
For `NC(=O)[C@]12CC3CC(C1)[C@@H](OC(=O)N1CC[C@@H](Nc4nnc(C(F)(F)F)s4)C1)C(C3)C2` [Example 42, (R)-(trans-1-carbamoyl-4-adamantyl) 3-(5-(trifluoromethyl)-1,3,4-thiadiazol-2-ylamino)pyrrolidine-1-carboxylate] the same measures were 79.3% and less than 100 nM.
As to `N#Cc1cnc(N[C@@H]2CCN(C(=O)O[C@H]3C4CC5CC3C[C@](O)(C5)C4)C2)s1` [Example 82, (R)-(trans-1-hydroxy-4-adamantyl) 3-(5-cyanothiazol-2-ylamino)pyrrolidine-1-carboxylate], the inhibition at 0.1 µM amounted to 86.6% and the IC50 was less than 100 nM.

Values taken from patent US8828985B2, “Carbamate and urea inhibitors of 11-beta-hydroxysteroid dehydrogenase 1” (Vitae Pharmaceuticals, Inc., priority 2008, dated 2014).
